Data as given in US20180305370A1 (ORPHOMED, INC., priority 2015, published 2018).
Where two headings read alike, the source gives them in different places.

Columns and labels:
[1] = In vivo pharmacokinetic study, IV and oral gavage
Method: The animal pharmacokinetic studies were conducted at Johns Hopkins Medical Institute using CD-1 mice (weighing about 35 gm, n=3 per time point). […] Blood collected at 0, 30 min and 1, 2, 6 and 24 hours post-dose. Blood samples for the drug were analyzed after harvesting the plasma and by LC/MS/MS as follows:
Extracts were centrifuged at 16000×g at 4° C. for 5 minutes. Supernatants (250 μL) were transferred to a new tube and dried under N2 at 45° C. for 1 hour. Samples were reconstituted with 100 μL of 30% acetonitrile, vortexed and centrifuged. Supernatants (90 μL) were transferred to LC vials and 10 μL was injected on LC/MS.

[2] = system: formalin-induced hind paw licking; assay: Analgesia, formalin paw mouse study (hind paw licking time)
[3] = for stability over time: 28 months, room temperature
[4] = system: human liver microsomes; assay: Metabolic stability in human liver microsomes; settings: 1 μM, human liver microsomes 1 mg protein/mL, up to 120 min, FIG. 1
[5] = cited from earlier work
[6] = in vivo; cited from earlier work
[7] = biological target: ORL-1 (Homo sapiens, UniProt P41146); settings: cited from earlier work
Sequence of ORL-1 (P41146 whole entry, species assumed): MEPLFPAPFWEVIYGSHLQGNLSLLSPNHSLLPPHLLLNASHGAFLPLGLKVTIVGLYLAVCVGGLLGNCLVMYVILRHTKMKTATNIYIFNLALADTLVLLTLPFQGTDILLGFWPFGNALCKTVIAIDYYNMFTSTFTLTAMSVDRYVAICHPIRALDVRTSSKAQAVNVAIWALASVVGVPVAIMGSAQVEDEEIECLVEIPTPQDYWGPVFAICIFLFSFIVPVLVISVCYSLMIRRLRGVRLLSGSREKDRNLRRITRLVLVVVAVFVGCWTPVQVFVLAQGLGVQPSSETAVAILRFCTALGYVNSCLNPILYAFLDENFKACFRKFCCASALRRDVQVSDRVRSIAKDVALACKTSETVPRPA

Row | Compound | absolute bioavailability (ratio of area under the concentration curve after oral and IV dose) ([1]; CD-1 mice, 10 mg/kg oral gavage vs IV, FIG. 6) | bioavailability, less than morphine ([1]; animal studies versus morphine) | analgesic effect ([2]; 5 mg/kg IP, mice, FIG. 9) | activity, less than morphine ([2]; animal studies versus morphine (Example 7)) | stability over time ([3]; listed as EGE conjugate) | stability over time ([3]; listed as compound of the invention) | HPLC Purity, September 2015 ([3]; hydrochloride salt, after 28 months at room temperature in clear glass vials) | HPLC Purity, May 2013 ([3]; hydrochloride salt, immediately after synthesis, stability baseline) | metabolism in presence of microsomal enzymes [4] | absolute bioavailability after an oral dose [5] | analgesic potency compared with morphine [6] | Activity [7]
1 | 2-[(2S)-2-[(5R,6R,7R,14S)-9α-cyclopropylmethyl-4,5-epoxy-6,14-ethano-3-hydroxy-6-methoxymorphinan-7-yl]-3,3-dimethylbutan-2-ol]-ethanol [EGE buprenorphine hydrochloride] | about 40% | about 40% | rapid analgesic effect | about 2.5% | unchanged over time | significantly more stable | 98.7% (AUC) | 98.6% (AUC) | rapid metabolism |  |  | 
2 | CO[C@]12CC[C@@]3(C[C@@H]1[C@](C)(O)C(C)(C)C)[C@H]1Cc4ccc(O)c5c4[C@@]3(CCN1CC1CC1)[C@H]2O5 [Buprenorphine, buprenorphine] |  |  |  |  |  |  |  |  |  | less than 10% | about thirty times more potent | Agonist
